Where two headings read alike, the source gives them in different places.
Tests used:
Format in all cases: biochemical
class I HDACs = assay: HDAC enzyme inhibitory assay, class I HDACs overall; settings: class I HDACs tested (HDAC1, 2, 3, 8)
Procedure: Enzyme inhibitory assays were carried out essentially as follows. In brief, compounds were incubated with the appropriate HDAC enzyme, the appropriate HDAC substrate, bovine serum albumin, and HDAC buffer. Duplicate reactions were carried out at 37° C. for 30 min. The reactions were quenched at the end of the incubation period with the addition of HDAC developer. […] The % inhibitory activity was calculated according to the equation (F−Fb)/(Ft−Fb), where F—fluorescent intensity of compound treated wells, Fb—fluorescent intensity of blank wells, Ft—fluorescent intensity of solvent control wells. IC50 values were calculated using GraphPad Prism.

HDAC8 = target: T1, HDAC8 (Homo sapiens, UniProt Q9BY41); assay: HDAC enzyme inhibitory assay (fluorescence), HDAC8
T1 sequence (Q9BY41 1-377): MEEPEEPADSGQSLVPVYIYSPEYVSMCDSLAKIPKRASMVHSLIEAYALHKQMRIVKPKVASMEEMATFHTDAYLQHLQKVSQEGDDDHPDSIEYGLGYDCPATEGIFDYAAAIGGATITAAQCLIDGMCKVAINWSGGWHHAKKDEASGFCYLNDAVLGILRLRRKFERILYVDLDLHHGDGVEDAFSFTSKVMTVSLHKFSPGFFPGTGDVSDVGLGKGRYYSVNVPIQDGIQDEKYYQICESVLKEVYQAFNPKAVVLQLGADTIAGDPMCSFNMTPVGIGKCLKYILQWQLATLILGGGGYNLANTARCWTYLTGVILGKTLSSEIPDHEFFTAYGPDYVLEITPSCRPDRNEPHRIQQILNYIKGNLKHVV
Procedure: (§1) Enzyme inhibitory assays were carried out essentially as follows. In brief, compounds were incubated with the appropriate HDAC enzyme, the appropriate HDAC substrate, bovine serum albumin, and HDAC buffer. Duplicate reactions were carried out at 37° C. for 30 min. The reactions were quenched at the end of the incubation period with the addition of HDAC developer. Reactions were further incubated for 15 min at room temperature prior to fluorescence measurement (ex 360 nm/em 460 nm). The % inhibitory activity was calculated according to the equation (F−Fb)/(Ft−Fb), where F—fluorescent intensity of compound treated wells, Fb—fluorescent intensity of blank wells, Ft—fluorescent intensity of solvent control wells. IC50 values were calculated using GraphPad Prism.

HDAC1 = HDAC1 (Homo sapiens, UniProt Q13547); assay: HDAC enzyme inhibitory assay (fluorescence), HDAC1
Procedure: as §1

HDAC2 = HDAC2 (Homo sapiens, UniProt Q92769); assay: HDAC enzyme inhibitory assay (fluorescence), HDAC2; settings: for IC50 (HDAC2)/IC50 (HDAC1): selectivity ratio, table
Procedure: as §1

HDAC3 = HDAC3 (Homo sapiens, UniProt O15379); assay: HDAC enzyme inhibitory assay (fluorescence), HDAC3; settings: for IC50 (HDAC3)/IC50 (HDAC1): selectivity ratio, table
Procedure: as §1

[1] = read-out: IC50 HDAC8, 'No Inhibition up to 1 μM', no inhibition up to highest concentration 1 μM
[2] = no inhibition up to highest concentration 1 μM

Chain of HDAC1 (Q13547 whole entry, species assumed): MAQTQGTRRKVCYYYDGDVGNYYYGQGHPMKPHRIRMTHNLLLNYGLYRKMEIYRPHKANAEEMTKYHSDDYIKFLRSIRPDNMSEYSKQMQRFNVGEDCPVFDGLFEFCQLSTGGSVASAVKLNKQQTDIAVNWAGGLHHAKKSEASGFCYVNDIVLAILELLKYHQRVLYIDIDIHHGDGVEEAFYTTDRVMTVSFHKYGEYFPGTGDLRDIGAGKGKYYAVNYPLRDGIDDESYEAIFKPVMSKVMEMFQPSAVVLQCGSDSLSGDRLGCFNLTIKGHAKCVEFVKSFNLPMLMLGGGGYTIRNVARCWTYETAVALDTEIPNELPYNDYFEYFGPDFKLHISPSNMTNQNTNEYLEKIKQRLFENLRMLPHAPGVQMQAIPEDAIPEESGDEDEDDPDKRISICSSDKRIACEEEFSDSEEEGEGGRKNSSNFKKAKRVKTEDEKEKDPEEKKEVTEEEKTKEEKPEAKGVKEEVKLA
Chain of HDAC2 (Q92769 whole entry, species assumed): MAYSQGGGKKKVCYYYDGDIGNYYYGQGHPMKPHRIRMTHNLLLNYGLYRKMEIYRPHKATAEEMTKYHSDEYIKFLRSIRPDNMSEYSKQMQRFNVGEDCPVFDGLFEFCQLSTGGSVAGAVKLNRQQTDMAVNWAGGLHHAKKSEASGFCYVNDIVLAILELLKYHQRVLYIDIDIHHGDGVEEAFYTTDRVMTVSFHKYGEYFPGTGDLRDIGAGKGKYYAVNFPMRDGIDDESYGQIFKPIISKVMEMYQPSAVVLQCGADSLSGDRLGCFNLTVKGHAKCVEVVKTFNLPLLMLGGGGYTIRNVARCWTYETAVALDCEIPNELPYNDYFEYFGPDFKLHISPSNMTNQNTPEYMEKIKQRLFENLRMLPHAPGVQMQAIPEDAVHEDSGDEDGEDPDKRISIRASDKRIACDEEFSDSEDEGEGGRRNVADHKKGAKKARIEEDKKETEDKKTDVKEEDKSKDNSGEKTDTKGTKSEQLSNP
Chain of HDAC3 (O15379 whole entry, species assumed): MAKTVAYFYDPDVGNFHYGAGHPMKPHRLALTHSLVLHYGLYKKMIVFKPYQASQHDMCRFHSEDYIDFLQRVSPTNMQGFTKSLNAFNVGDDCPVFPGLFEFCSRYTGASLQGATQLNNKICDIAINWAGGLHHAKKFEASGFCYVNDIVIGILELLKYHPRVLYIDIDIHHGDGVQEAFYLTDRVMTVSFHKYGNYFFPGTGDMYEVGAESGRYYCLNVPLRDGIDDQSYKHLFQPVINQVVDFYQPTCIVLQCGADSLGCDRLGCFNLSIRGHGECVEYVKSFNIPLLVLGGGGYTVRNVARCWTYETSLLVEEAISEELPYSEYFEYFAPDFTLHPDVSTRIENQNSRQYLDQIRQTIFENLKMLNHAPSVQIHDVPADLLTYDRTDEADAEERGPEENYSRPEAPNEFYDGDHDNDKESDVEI
Chain of HDAC3 (Q9Y618 395-489 partner limits assumed, species assumed): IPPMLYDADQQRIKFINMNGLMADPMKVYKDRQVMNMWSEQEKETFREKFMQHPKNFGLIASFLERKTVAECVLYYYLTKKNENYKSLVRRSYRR

Row | SMILES | IC50 (HDAC8; [1]) [nM] | IC50 (HDAC1) [nM] | IC50 (HDAC8; [2]) [nM] | IC50 (HDAC2) [nM] | IC50 (HDAC2)/IC50 (HDAC1) (HDAC2) | IC50 (HDAC3) [nM] | IC50 (HDAC3)/IC50 (HDAC1) (HDAC3) | other results
1 | CC12CSC(=N1)c1csc(n1)CNC(=O)CC(C=CCCS)OC(=O)C(CC(=O)O)NC2=O (centres unmarked) [Compound 6] | > 1000 | 39 |  |  |  |  |  | HDAC inhibition, potency in words (class I HDACs): significant reduction in activity
2 | C[C@@]12CSC(=N1)c1csc(n1)CNC(=O)C[C@@H](/C=C/CCS)OC(=O)[C@H](Cc1ccc(O)cc1)NC2=O [Compound 4] |  |  | > 1000 |  |  |  |  | 
3 | C[C@@]12CSC(=N1)c1csc(n1)CNC(=O)C[C@@H](/C=C/CCS)OC(=O)[C@H](CCCN)NC2=O [Compound 8] |  |  | > 1000 |  |  |  |  | 
4 | CC(C)(C)OC(=O)NCCCC1NC(=O)C2(C)CSC(=N2)c2csc(n2)CNC(=O)CC(C=CCCS)OC1=O (centres unmarked) [Compound 10] |  | 0.96 |  | 1.4 | 1.5 | 1.8 | 1.9 | HDAC inhibition, potency in words (class I HDACs): more potent than 9; IC50 (HDAC8; read-out: IC50 (nM) HDAC8): 790 nM
5 | CC(C)(C)OC(=O)NCCC1NC(=O)C2(C)CSC(=N2)c2csc(n2)CNC(=O)CC(C=CCCS)OC1=O (centres unmarked) [Compound 9] | > 1000 | 2.3 |  | 3.1 | 1.4 | 4.2 | 1.8 | 
6 | CC12CSC(=N1)c1csc(n1)CNC(=O)CC(C=CCCS)OC(=O)C(Cc1c[nH]cn1)NC2=O (centres unmarked) [Compound 5] | > 1000 | 0.2 |  | 1.4 | 7.0 | 1.1 | 5.5 | selectivity towards HDAC1 over HDAC2 (HDAC2): 7 fold; selectivity towards HDAC1 over HDAC3 (HDAC3): 5.5 fold
7 | CC12CSC(=N1)c1csc(n1)CNC(=O)CC(C=CCCS)OC(=O)C(Cc1ccccc1)NC2=O (centres unmarked) [Compound 3] | > 1000 | 0.29 |  |  |  |  |  | 
8 | C[C@@]12CSC(=N1)c1csc(n1)CNC(=O)C[C@@H](/C=C/CCS)OC(=O)[C@H](CCN)NC2=O [Compound 7] |  |  | > 1000 |  |  |  |  | 

From patent US9815852B2, “Macrocyclic compounds and methods of treatment” (University of Florida Research Foundation, Inc., priority 2014, dated 2017)
